Test results reported in US20240262806A1, “INHIBITORS OF NLRP3” (PTC THERAPEUTICS, INC., priority 2021, published 2024).
Where a name gives a salt, the structure may show the parent alone.

test system: NLRP3 inflammasome; assay: IL-1β Secretion Assay (NLRP3-dependent IL-1β secretion in PMA-differentiated THP-1 cells, nigericin activation, HTRF); assay type: cell-based; conditions: Homo sapiens, THP-1, THP-1 cells, 100 ng/mL PMA 24 h, compound 20 h, 2.5 μM Nigericin 3 h; read-out: IC50 IL-1β Inhibition
In short: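 IL-1β release, quantified by HTRF after nigericin activation of the NLRP3 inflammasome, was the read-out. A logistic fit of percent inhibition gave IC50.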

SMILES | IC50 [µM]
Cc1ccc(-c2nnc(N[C@@H]3CCCN(C)C3)c3cnccc23)c(C)c1 [Compound I-216] | 0.001 to 0.01
Cc1cc2c(-c3ccc(Br)cc3OC(F)(F)F)nnc(N[C@@H]3CCCN(C)C3)n2n1 [Compound I-374, (R)-4-(4-Bromo-2-(trifluoromethoxy)phenyl)-2-methyl-N-(1-methylpiperidin-3-yl)pyrazolo[1,5-d][1,2,4]triazin-7-amine] | 0.001 to 0.01
OCCN1CCC[C@@H](Nc2nnc(-c3c(O)cc(Cl)cc3F)c3ccncc23)C1 [Compound I-282, 5-Chloro-3-fluoro-2-[4-[[(3R)-1-(2-hydroxyethyl)-3-piperidyl]amino]pyrido[3,4-d]-pyridazin-1-yl]phenol] | < 0.001
CN1CCC[C@@H](Nc2nnc(-c3ccc(Cl)cc3C(F)(F)F)c3ccncc23)C1 [Compound I-289] | 0.001 to 0.01
CN1CCC[C@@H](Nc2nnc(-c3ccc(C4CC4)cc3C(F)(F)F)c3cccn23)C1 [Compound I-534] | < 0.001
C[C@]1(O)C[C@@H](Nc2nnc(-c3ccc(OC(F)(F)F)cc3OC(F)F)c3cccn23)C1 [Compound I-522] | 0.01 to 0.1
CC(C)(O)CN1CCC[C@@H](Nc2nnc(-c3ccc(C(F)(F)F)cc3O)c3cccn23)C1 [Compound I-364] | 0.001 to 0.01
CCc1cc(O)c(-c2nnc(N[C@@H]3CCCN(C)C3)n3cccc23)c(F)c1 [Compound I-563] | < 0.001
CC(C)(O)CNc1nnc(-c2ccc(OC(F)(F)F)cc2O)c2cccn12 [Compound I-438] | 0.1 to 0.3
CN1CCC[C@@H](Nc2nnc(-c3ccc(C4=CCOC4)cc3O)c3ccccc23)C1 [Compound I-57] | 0.001 to 0.01
CCN1C[C@H](F)C[C@@H](Nc2nnc(-c3c(O)cc(C)cc3F)c3cccn23)C1 [Compound I-571] | < 0.001
CCOc1cc(O)c(-c2nnc(N[C@@H]3CCCN(C)C3)n3cccc23)c(F)c1 [Compound I-630] | 0.001 to 0.01
Cc1cncc(-c2nnc(N[C@@H]3CCCN(C)C3)c3ccccc23)c1O [Compound I-159] | 0.1 to 0.3
COc1cc(Br)ccc1-c1nnc(N[C@@H]2CCCN(C)C2)n2nccc12 [Compound I-451] | 0.01 to 0.1
CCN1CCC[C@H]1CNc1nnc(-c2ccc(C(F)(F)F)cc2O)c2ccncc12 [Compound I-113] | < 0.001
CC(C)Oc1cc(C(F)(F)F)ccc1-c1nnc(N[C@@H]2CCCN(C)C2)c2cnccc12 [Compound I-291] | 0.001 to 0.01
CN1C[C@H](F)C[C@@H](Nc2nnc(-c3ccc(C(F)(F)F)cc3O)c3ccncc23)C1 [Compound I-280] | < 0.001
CN1CCC[C@@H](Nc2nnc(-c3ccc(N4CCCC4)cc3O)c3ccccc23)C1 [Compound I-93] | 0.001 to 0.01
CN1CCC[C@@H](Nc2nnc(-c3ccc(C(F)(F)F)cc3OC(F)F)c3c(F)ccn23)C1 [Compound I-394] | 0.001 to 0.01
Oc1cc(C(F)(F)F)cc(F)c1-c1nnc(N[C@@H]2CCCN(C3CCOCC3)C2)n2cccc12 [Compound I-430] | 0.001 to 0.01
CN1CCC[C@@H](Nc2nnc(-c3ccc(C(F)(F)F)cc3C(F)F)c3cccn23)C1 [Compound I-426] | 0.01 to 0.1
CN1CCC[C@@H](Nc2nnc(-c3ccc(Cl)cc3O)c3cccn23)C1 [Compound I-355] | < 0.001
CN1CCC[C@@H](Nc2nnc(-c3ccc(C4=CCCOC4)cc3O)c3ccccc23)C1 [Compound I-52] | 0.001 to 0.01
Oc1cc(C(F)(F)F)ccc1-c1nnc(N[C@H]2CCOC2)n2cccc12 [Compound I-459] | 0.01 to 0.1

SMILES | IC50 [µM]
CN1CCC[C@@H](Nc2nnc(-c3ccc(OC(F)(F)F)cc3O)c3ccncc23)C1 [Compound I-102] | < 0.001
OCCN1CCC[C@@H](Nc2nnc(-c3ccc(Cl)cc3O)c3cccn23)C1 [Compound I-369] | 0.001 to 0.01
COc1cc(Br)ccc1-c1nnc(N[C@@H]2CCCNC2)n2nccc12 [Compound I-390] | 0.1 to 0.3
CN1CCC[C@@H](Nc2nnc(-c3ccc(C#N)cc3OC(F)F)c3ccncc23)C1 [Compound I-167] | 0.01 to 0.1
Cc1ccc(-c2nnc(N[C@@H]3CCCN(C)C3)c3ncccc23)c(O)c1 [Compound I-86] | < 0.001
Cc1cc(F)c(-c2nnc(N[C@@H]3C[C@@H](F)CN(C)C3)n3cccc23)c(OC(F)F)c1 [Compound I-462] | 0.01 to 0.1
CN1CCC[C@@H](Nc2nnc(-c3ccc(C(F)(F)F)cc3S(N)(=O)=O)c3ccncc23)C1 [Compound I-156, (R)-2-(4-((1-methylpiperidin-3-yl)amino)pyrido[3,4-d]pyridazin-1-yl)-5-(trifluoromethyl)benzene-sulfonamide] | 0.1 to 0.3
CN1CCC[C@@H](Nc2nnc(-c3ccc(C(F)(F)F)cc3C#N)c3ccncc23)C1 [Compound I-130] | 0.001 to 0.01
Oc1cc(C(F)(F)F)ccc1-c1nnc(NC[C@@H]2CCCN2)c2ccccc12 [Compound I-68] | < 0.001
CN1CCC[C@@H](Nc2nnc(-c3c(O)cc(C(F)(F)F)cc3C3CC3)c3ccncc23)C1 [Compound I-274, 3-Cyclopropyl-2-[4-[[(3R)-1-methyl-3-piperidyl]amino]pyrido[3,4-d]pyridazin-1-yl]-5-(trifluoromethyl)phenol] | 0.001 to 0.01
COc1ccc(-c2nnc(N[C@H]3C[C@](C)(O)C3)n3cccc23)c(OC(F)F)c1 [Compound I-472] | 0.01 to 0.1
CN1CCCC(Nc2nnc(-c3ccc(C(F)(F)F)cc3O)c3ccncc23)CC1 (stereo not shown) [Compound I-263] | 0.001 to 0.01
Cc1ccc(-c2nnc(N[C@@H]3CCCN(C)C3)c3cnccc23)c(C(F)F)c1 [Compound I-299] | < 0.001
CCN1CCC[C@@H](Nc2nnc(-c3ccc(C(F)(F)F)cc3O)c3c2CCCC3)C1 [Compound I-19] | < 0.001
CN1CCC[C@@H](Nc2nnc(-c3ccc(OC(F)F)cc3OC(F)F)c3cccn23)C1 [Compound I-612] | 0.001 to 0.01
CN1CCC[C@@H](Nc2nnc(-c3c(O)cccc3C#N)c3ccncc23)C1 [Compound I-140] | 0.001 to 0.01
Cc1cc2c(-c3c(O)cc(Cl)cc3F)nnc(N[C@@H]3CCCN(C)C3)n2n1 [Compound I-455] | < 0.001
FC(F)Oc1cc(C(F)(F)F)ccc1-c1nnc(N[C@@H]2CCCN(CC(F)(F)F)C2)n2cccc12 [Compound I-494] | 0.1 to 0.3
CN1CCC[C@@H](Nc2nnc(-c3cc(OC(F)(F)F)ccc3C(F)F)c3ccncc23)C1 [Compound I-320] | 0.001 to 0.01
CN1CCC[C@@H](Nc2nnc(-c3ccc(C(F)(F)F)cc3O)c3c(Cl)ccn23)C1 [Compound I-104, 2-[8-Chloro-4-[[(3R)-1-methyl-3-piperidyl]amino]pyrrolo[1,2-d][1,2,4]triazin-1-yl]-5-(trifluoromethyl)phenol] | 0.001 to 0.01
CCN1CCC[C@@H](Nc2nnc(-c3ccc(C(F)(F)F)cc3OC(F)F)c3cnccc23)C1 [Compound I-235] | 0.001 to 0.01
Oc1cc(C(F)(F)F)ccc1-c1nnc(N[C@H]2C[C@](O)(C(F)(F)F)C2)n2cccc12 [Compound I-405] | 0.1 to 0.3
COc1ccc(-c2nnc(N[C@@H]3CCCN(C)C3)c3cnccc23)c(C)c1 [Compound I-254] | 0.001 to 0.01
CN1CCC[C@@H](Nc2nnc(-c3ccc(C(F)(F)F)cc3O)c3nccn23)C1 [Compound I-398, 2-[5-[[(3R)-1-Methyl-3-piperidyl]amino]imidazo[1,2-d][1,2,4]triazin-8-yl]-5-(trifluoromethyl)phenol formic acid salt] | > 0.3

same assay, conditions: THP-1 cells, 100 ng/mL PMA 24 h, compound 20 h, 2.5 μM Nigericin 3 h; read-out: IC50 IL-1β Inhibition

SMILES | IC50 [µM]
CN1CCC[C@@H](Nc2nnc(-c3c(F)ccc(Cl)c3O)c3ccncc23)C1 [Compound I-209] | 0.001 to 0.01
